# Source: patent US20230159587A1, “PHARMACEUTICAL COMPOSITION FOR PREVENTING OR TREATING CANCER” (L-BASE CO., LTD., priority 2021, published 2023)
# Residues, ends and D or L forms follow the SMILES beside them. No end group written: not given here. *: point of attachment. Benzoyl(3-Ph) = O=C(c1cccc(-c2ccccc2)c1)*; Benzoyl(4-Ph) = O=C(c1ccc(-c2ccccc2)cc1)*; Benzoyl(2-Ph) = O=C(c1ccccc1-c1ccccc1)*; Benzoyl(4-OMe) = COc1ccc(C(=O)*)cc1; 2Naphthoyl = O=C(c1ccc2ccccc2c1)*; Bz = O=C(c1ccccc1)*
# Tests used:
# in vitro = details: human
# [1] = test system: breast cancer cell line HCC1937; assay: MTT assay, proliferation suppression in breast cancer cell line HCC1937; assay type: cell-based; details: HCC1937, 100 μM, 72 hours
# Protocol: (§1) After 72 hours, 10 μl of a CellTiter-96® (Promega Co., USA) reagent was added to each well and allowed to react at 5% CO2 and 37° C. After 3 hours, absorbance was measured at 490 nm using a spectrophotometer (SPECTROstar^Nano, BMG).
# HCC1937 was used as the breast cancer cell line.
# The HCC1937 cell line was treated with Ac-[…], 3-PhPh-[…], 4-MeOPh-[…], 2-PhPh-[…], Ph-[…], and Naphthyl-[…] at a concentration of 100 μM, respectively, and cell proliferation suppression effects were compared after 72 hours.
# [2] = test system: pancreatic cancer cell line CFPAC-1; assay: MTT assay, cell viability suppression in pancreatic cancer cell line CFPAC-1; assay type: cell-based; details: CFPAC-1, 10 μM, 72 hours
# Protocol: as §1
# [3] = test system: colorectal cancer cell line HT29; assay: Cell proliferation suppression in colorectal cancer cell line HT29; assay type: cell-based; details: HT29, 50 μM, 72 hours
# Protocol: (§2) After 48 hours, a CellTiter-Glo® (Promega Co., USA) reagent was mixed in the same amount as the cell culture medium and allowed to react in an orbital shaker for 2 minutes. After reaction at room temperature for 10 minutes, the luminescence signal was measured using a luminometer (GloMax®, Promega).
# as §1
# [4] = test system: lung cancer cell line H1299; assay: CTG assay, cell viability suppression in lung cancer cell line H1299; assay type: cell-based; details: H1299, 100 μM, 48 hours
# Protocol: as §2
# [5] = test system: CT26 cells induced to express CAGE gene; assay: Tumor growth suppression, mice inoculated with CT26 cells induced to express CAGE gene; assay type: in vivo; details: CT26 expressing CAGE, 10 mpk tail vein, 7 times at 2-day intervals; for tumor growth suppression compared to the AQTGTGKT administration group: day 14; for tumor volume on day 14 (average): day after 7th administration
# Protocol: (§3) 200 μl of CT26 cells, which were induced to express CAGE gene, were inoculated once by subcutaneous injection into the flanks of mice at a concentration of 1×10^6 cells/mouse. After it was confirmed that the volume of a tumor mass formed after the inoculation reached 70 mm^3, random group separation was performed. A test material was injected to the tail vein 7 times at 2-day intervals at a concentration of 10 mpk, and the start date of administration was set as day 1. The tumor volume was calculated twice a week by measuring the width and length and at the same time, the mouse body weight was measured.
# [6] = test system: blood cancer cell line Jurkat clone E6-1; assay: MTT assay, proliferation suppression in blood cancer cell line Jurkat clone E6-1; assay type: cell-based; details: Jurkat clone E6-1, 10 μM, 48 hours
# Protocol: as §1
# As the blood cancer cell line, Jurkat clone E6-1 was used.
# Jurkat clone E6-1 was treated with 4-PhPh-[…], Ac-[…], 3-PhPh-[…], 4-MeOPh-[…], 2-PhPh-[…], Ph-[…], and Naphthyl-[…] at a concentration of 10 μM, respectively, and cell proliferation suppression effects were compared after 48 hours.
# [7] = test system: lung cancer cell line H820 tumors; assay: Tumor growth suppression, nude mice inoculated with lung cancer cell line H820; assay type: in vivo; details: H820 in nude mice, 10 mpk, tail vein, 5 times at 3-day intervals and 5 times at 2-day intervals
# Protocol: 200 μl of H820 cells were inoculated once by subcutaneous injection into the flanks of mice at a concentration of 5×10^6 cells/mouse at 1:1 with Matrigel. After it was confirmed that the volume of a tumor mass formed after the inoculation reached 70 to 130 mm^3, random group separation was performed. […]
# [8] = Stability in human blood (residual amount over time)
# [9] = test system: breast cancer cell line HCC1806 tumors; assay: Tumor growth suppression, mice inoculated with breast cancer cell line HCC1806; assay type: in vivo, immunodeficient mice; details: HCC1806, 10 mpk tail vein, 7 times at 2-day intervals; for tumor volume on day 15 (average): 2 days after last administration; for tumor growth suppression compared to the tumor volume of the AQTGTGKT group: day 15
# Protocol: as §3, with “a breast cancer cell line, HCC1806” for “CT26”, “cells,” for “cells, which were induced to express CAGE gene,”, “5×10^6” for “1×10^6”, “70 to 130” for “70”
# [10] = test system: lung cancer cell line H1975; assay: CTG assay, cell viability suppression in lung cancer cell line H1975; assay type: cell-based; details: H1975, 10 μM, 72 hours
# Protocol: as §2
# [11] = test system: H1975 lung cancer cells tumors; assay: Tumor growth suppression, nude mice inoculated with H1975 lung cancer cells; assay type: in vivo; details: H1975 in nude mice, 10 mpk for 14 days
# Protocol: 150 μl of H1975 cells were inoculated once by subcutaneous injection into the flanks of mice at a concentration of 4×10^6 cells/mouse. After it was confirmed that the volume of a tumor mass formed after the inoculation reached 70 to 130 mm^3, random group separation was performed. A test material was injected to the tail vein 5 times at 3-day intervals and 5 times at 2-day intervals.
# [12] = test system: lung cancer cell line H820; assay: Cell viability suppression in lung cancer (papillary adenocarcinoma) cell line H820; assay type: cell-based; details: H820, 10 μM, 72 hours
# Protocol: as §2, §1
# [13] = test system: breast cancer cell line MDA-MB-231; assay: CTG assay, activity of breast cancer cells MDA-MB-231 (amount of ATP); assay type: cell-based; details: MDA-MB-231, 100 μM, 48 hours
# Protocol: as §2
Compound,half-life at 10 μM (in vitro) [min],suppression of proliferation of cells compared to the control (AQTGTGKT) [1],cell viability suppression effect compared to the control (AQTGTGKT) [2],cell proliferation suppression effect compared to the control (AQTGTGKT) [3],cell viability suppression effect compared to the control (AQTGTGKT) [4],tumor growth suppression compared to the AQTGTGKT administration group [5],tumor volume on day 14 (average) [5] [mm^3],suppression of proliferation of cells compared to the control (AQTGTGKT) [6],tumor growth suppression effect compared to the control (AQTGTGKT) [7],half-life at 10 μM [8] [min],tumor volume on day 15 (average) [9] [mm^3],tumor growth suppression compared to the tumor volume of the AQTGTGKT group [9],cell viability suppression effect compared to the control (AQTGTGKT) [10],tumor growth reduction compared to the control (AQTGTGKT) [11],cell viability suppression effect compared to the control (AQTGTGKT) [12],reduction of activity of cells compared to the control (AQTGTGKT) [13]
C[C@H](NC(=O)c1ccc2ccccc2c1)C(=O)N[C@@H](CCC(N)=O)C(=O)N[C@H](C(=O)NCC(=O)N[C@H](C(=O)NCC(=O)N[C@@H](CCCCN)C(=O)N[C@H](C(=O)O)[C@@H](C)O)[C@@H](C)O)[C@@H](C)O (2Naphthoyl-AQTGTGKT-OH),47 to 105,~9.5%,3%,58%,14%,about 62.04%,880.35,~10.4%,26%,–,–,–,–,–,–,–
C[C@H](NC(=O)c1ccccc1)C(=O)N[C@@H](CCC(N)=O)C(=O)N[C@H](C(=O)NCC(=O)N[C@H](C(=O)NCC(=O)N[C@@H](CCCCN)C(=O)N[C@H](C(=O)O)[C@@H](C)O)[C@@H](C)O)[C@@H](C)O (Bz-AQTGTGKT-OH),–,~13.6%,3%,40%,18%,–,–,~10.2%,20%,47 to 105,1133.80,~39.82%,–,–,–,–
C[C@H](NC(=O)c1ccccc1-c1ccccc1)C(=O)N[C@@H](CCC(N)=O)C(=O)N[C@H](C(=O)NCC(=O)N[C@H](C(=O)NCC(=O)N[C@@H](CCCCN)C(=O)N[C@H](C(=O)O)[C@@H](C)O)[C@@H](C)O)[C@@H](C)O ({Benzoyl(2-Ph)}-AQTGTGKT-OH),47 to 105,~15.9%,–,7%,20%,–,–,~6.7%,27%,–,–,–,3%,–,–,–
C[C@H](NC(=O)c1cccc(-c2ccccc2)c1)C(=O)N[C@@H](CCC(N)=O)C(=O)N[C@H](C(=O)NCC(=O)N[C@H](C(=O)NCC(=O)N[C@@H](CCCCN)C(=O)N[C@H](C(=O)O)[C@@H](C)O)[C@@H](C)O)[C@@H](C)O ({Benzoyl(3-Ph)}-AQTGTGKT-OH),47 to 105,~17.1%,2%,59%,15%,about 65.79%,880.35,~6.4%,about 16.5%,–,944.70,about 49.86%,33%,about 16.5%,about 12%,–
COc1ccc(C(=O)N[C@@H](C)C(=O)N[C@@H](CCC(N)=O)C(=O)N[C@H](C(=O)NCC(=O)N[C@H](C(=O)NCC(=O)N[C@@H](CCCCN)C(=O)N[C@H](C(=O)O)[C@@H](C)O)[C@@H](C)O)[C@@H](C)O)cc1 ({Benzoyl(4-OMe)}-AQTGTGKT-OH),47 to 105,~14.3%,6%,48%,12%,–,–,~4%,–,–,812.69,~56.86%,4%,–,10%,–
C[C@H](NC(=O)c1ccc(-c2ccccc2)cc1)C(=O)N[C@@H](CCC(N)=O)C(=O)N[C@H](C(=O)NCC(=O)N[C@H](C(=O)NCC(=O)N[C@@H](CCCCN)C(=O)N[C@H](C(=O)O)[C@@H](C)O)[C@@H](C)O)[C@@H](C)O ({Benzoyl(4-Ph)}-AQTGTGKT-OH),47 to 105,–,about 12%,about 8%,about 10%,–,–,about 4.8%,–,–,–,–,–,–,–,about 30%
"AQTGTGKT [alanine-glutamine-threonine-glycine-threonine-glycine-lysine-threonine, reference compound]",–,–,–,–,–,–,2573.07,–,–,< 1,1884.17,–,–,–,–,–
Ac-AQTGTGKT,–,about 11.1%,–,58%,4.2%,–,–,~7.9%,–,–,–,–,about 16%,–,–,–
